These results are taken from article PMC6476926, “Dichloro-Phenyl-Benzotriazoles: A New Selective Class of Human Respiratory Syncytial Virus Entry Inhibitors” (Frontiers in Chemistry, 2019).

One series relates to YFV. The experiment in a line: microbe, parasite or virus in culture. To be noted: Yellow fever virus, BHK, read-out: EC50 YFV. The series is classed as cell-based.
A short description of series [1]: Cytotoxicity, MTT method, MT-4 cells. To be noted: human. (Tetrazolium assays rely on reduction of a dye to a coloured formazan, in cell work by metabolically active cells.)
A further series concerns BVDV. Briefly: microbe, parasite or virus in culture. The series is classed as cell-based. To be noted: Bovine viral diarrhea virus isolates and strains, MDBK, read-out: EC50 BVDV.
A further series can be described thus: in vitro. To be noted: cattle (Bos taurus).
In the next series the test system is HIV-1IIIB. Briefly: microbe, parasite or virus in culture. The series is classed as cell-based, Human Immunodeficiency Virus type-1 (HIV-1). To be noted: Human immunodeficiency virus 1, MT4, read-out: EC50 HIV-1IIIB.
A short description of series [2]: Cytotoxicity, MTT method, Vero-76 cells. To be noted: African green monkey (Cercopithecus aethiops).
A further series has as its system Sb-1, VSV, VV, HSV-1. The experiment in a line: organism not typed. The series is classed as cell-based. To be noted: Vero 76, read-out: EC50 Sb-1, VSV, VV, HSV-1.
In a further series the test system is Reo-1. Briefly: microbe, parasite or virus in culture. To be noted: Reovirus sp., BHK, read-out: EC50 Reo-1. The series is classed as cell-based, Reovirus type-1 (Reo-1).
Another series deals with CV-B5. Briefly: microbe, parasite or virus in culture. To be noted: Enterovirus B, CVB5, Vero 76, read-out: EC50 CV-B5. The series is classed as cell-based, Human Enterovirus B [coxsackie type B5 (CV-B5)].
The nature of series [3]: Cytotoxicity, MTT method, BHK cells. To be noted: Syrian hamster (Mesocricetus auratus).
For the next series, the system named is RSV. Briefly: microbe, parasite or virus in culture. The series is classed as cell-based, Human Respiratory Syncytial Virus (RSV) strain A2. To be noted: human respiratory syncytial virus, Vero 76, read-out: EC50 RSV.

One may read the melting point as the temperature of the solid-liquid transition. In general, EC50 refers to the concentration that produces a half-maximal response. For the molecule `O=C(Nc1ccc(-n2nnc3cc(Cl)c(Cl)cc32)cc1)c1ccccc1` [7a, N-[4-(5,6-dichloro-1H-benzo[d][1,2,3]triazol-1-yl)phenil]benzamide], the melting point lay in the range of 250 to 252 °C. Further, the EC50 in the series on YFV is over 44 µM. The CC50 in series [1] is over 100 µM. For the same molecule, the EC50 in the series on BVDV is over 100 µM. Besides, in “in vitro”, the CC50 was over 100 µM. For the same molecule, the EC50 in the series with HIV-1IIIB is over 100 µM. This molecule also gave a CC50 at 5 days in [2] of over 100 µM. For the same molecule, the EC50 in the series on Sb-1, VSV, VV, HSV-1 is over 100 µM. The EC50 in the series with Reo-1 is over 44 µM. In the series on CV-B5, the EC50 is over 100 µM. This molecule returned a CC50 in series [3] of 44 µM. Further, the EC50 in the series with RSV amounted to 60 µM.

In turn, `O=C(Nc1ccc(F)cc1)Nc1ccc(-n2nc3cc(Cl)c(Cl)cc3n2)cc1` [10i, 1-[4-(5,6-dichloro-2H-benzo[d][1,2,3]triazol-2-yl)phenyl]-3-(4-fluorophenyl)urea] yielded a melting point of over 290 °C. In addition, the EC50 with YFV was over 100 µM. In [1], this molecule yielded a CC50 of over 100 µM. For the same molecule, in the series on BVDV, the EC50 was over 100 µM. The molecule further displayed a CC50 in the series “in vitro” of over 100 µM. In the series on HIV-1IIIB, the EC50 was over 100 µM. The same molecule came in with a CC50 at 5 days in series [2] of over 100 µM. In the series on Sb-1, VSV, VV, HSV-1, the EC50 was over 100 µM. The EC50 in the series with Reo-1 was over 100 µM. Besides, the EC50 in the series on CV-B5 was over 100 µM. In series [3], this molecule returned a CC50 of over 100 µM. In addition, the EC50 in the series with RSV is over 100 µM.

For the molecule `Nc1ccc(-n2nnc3cc(Cl)c(Cl)cc32)cc1` [1a, 1-(4-aminophenyl)-5,6-dichlorobenzotriazole], the EC50 in the series with YFV is over 100 µM; with BVDV, 75 µM; in the series on HIV-1IIIB, over 100 µM; in the series with Sb-1, VSV, VV, HSV-1 it was over 100 µM; in the series with Reo-1, over 100 µM; in the series on CV-B5 it was 85 µM. Also, the EC50 in the series on RSV was 20 µM. Also, the CC50 (in series [1]; in “in vitro”; in series [3]) was over 100 µM throughout. The same molecule returned a CC50 at 5 days in series [2] of over 100 µM.

For the molecule `CCCC(=O)N(C(=O)CCC)c1ccc(-n2nc3cc(Cl)c(Cl)cc3n2)cc1` [6f, N-butyryl-N-[4-(5,6-dichloro-2H-benzo[d][1,2,3]triazol-2-yl)phenyl] butyramide], the melting point was 130 to 133 °C. The EC50 in the series on YFV was over 62 µM. Further, the CC50 in series [1] was found to be 24 µM. Besides, the EC50 with BVDV is over 84 µM. Moreover, the CC50 in the series “in vitro” was 84 µM. Further, the EC50 with HIV-1IIIB was over 24 µM. Further, the CC50 at 5 days in series [2] is over 100 µM. Further, the EC50 with Sb-1, VSV, VV, HSV-1 was over 100 µM. In addition, the EC50 in the series on Reo-1 was over 26 µM. Moreover, the EC50 with CV-B5 came to 33 µM. In series [3], this molecule had a CC50 of 62 µM. Further, the EC50 in the series on RSV came out at 6 µM.

In turn, `CC(=O)Nc1ccc(-n2nnc3cc(Cl)c(Cl)cc32)cc1` [5a, N-[4-(5,6-dichloro-1H-benzo[d][1,2,3]triazol-1-yl)phenyl]acetamide] gave a melting point of 209 to 211 °C. Moreover, the EC50 with YFV was over 53 µM. The molecule also returned a CC50 in series [1] of 35 µM. Besides, the EC50 in the series on BVDV was over 43 µM. The molecule also showed a CC50 in “in vitro” of 43 µM. In the series with HIV-1IIIB, the EC50 is over 35 µM. Further, the CC50 at 5 days in series [2] came out at 30 µM. In addition, the EC50 in the series on Sb-1, VSV, VV, HSV-1 was over 30 µM. For the same molecule, in the series on Reo-1, the EC50 was over 53 µM. Also, in the series on CV-B5, the EC50 came to 17 µM. Further, the CC50 in series [3] came to 53 µM. Moreover, in the series on RSV, the EC50 worked out at 3 µM.

With `CC(=O)Nc1ccc(-n2nc3cc(Cl)c(Cl)cc3n2)cc1` [6a, N-[4-(5,6-dichloro-2H-benzo[d][1,2,3]triazol-2-yl)phenyl]acetamide], the melting point is over 290 °C. In the series with YFV, the EC50 is over 100 µM. This molecule also displayed a CC50 in series [1] of over 100 µM. Also, the EC50 with BVDV was over 100 µM. The same molecule returned a CC50 in the series “in vitro” of over 100 µM. Also, the concentration for a half-maximal effect (EC50) in the series with HIV-1IIIB is over 100 µM. The molecule further showed a CC50 at 5 days in series [2] of over 100 µM. Moreover, in the series on Sb-1, VSV, VV, HSV-1, the EC50 was over 100 µM. Moreover, in the series with Reo-1, the EC50 is over 100 µM. Moreover, the EC50 in the series with CV-B5 is over 100 µM. For the same molecule, the CC50 in series [3] was over 100 µM. For the same molecule, in the series on RSV, the concentration giving a half-maximal response (EC50) was over 100 µM.

As for `N#Cc1ccc(C(=O)Nc2ccc(-n3nc4cc(Cl)c(Cl)cc4n3)cc2)cc1` [8h, N-[4-(5,6-dichloro-2H-benzo[d][1,2,3]triazol-2-yl)phenyl] 4-cyanobenzamide], the melting point was 263 to 265 °C. The EC50 in the series on YFV is over 100 µM. Besides, in [1], the CC50 is over 100 µM. The EC50 with BVDV amounted to 11 µM. In “in vitro”, this molecule had a CC50 of over 100 µM. Besides, the EC50 in the series with HIV-1IIIB was over 100 µM. Moreover, the CC50 at 5 days in [2] was over 100 µM. For the same molecule, the EC50 in the series with Sb-1, VSV, VV, HSV-1 is over 100 µM. In addition, the EC50 with Reo-1 was over 100 µM. Further, the EC50 in the series with CV-B5 is over 100 µM. This molecule also came in with a CC50 in [3] of over 100 µM. In the series on RSV, the EC50 is 60 µM.

As for `COc1ccc(C(=O)Nc2ccc(-n3nnc4cc(Cl)c(Cl)cc43)cc2)cc1` [7c, N-[4-(5,6-dichloro-1H-benzo[d][1,2,3]triazol-1-yl)phenyl]-4-methoxybenzamide], the melting point lay in the range of 193 to 195 °C. Also, the EC50 with YFV was over 100 µM. This molecule also gave a CC50 in [1] of 33 µM. In addition, the half-maximal effective concentration (EC50) in the series on BVDV is over 100 µM. Further, the CC50 in “in vitro” was over 100 µM. Besides, the EC50 in the series on HIV-1IIIB is over 33 µM. In series [2], this molecule came in with a CC50 at 5 days of over 100 µM. Further, the EC50 in the series on Sb-1, VSV, VV, HSV-1 is over 100 µM. For the same molecule, in the series on Reo-1, the EC50 was over 100 µM. Further, the EC50 in the series on CV-B5 was over 100 µM. Moreover, the CC50 in series [3] is over 100 µM. Further, in the series on RSV, the EC50 came out at 35 µM.

For `Nc1ccc(-n2nc3cc(Cl)c(Cl)cc3n2)cc1` [1b, 2-(4-aminophenyl)-5,6-dichlorobenzotriazole], the 50% effective concentration (EC50) is over 100 µM in the series with YFV; 20 µM in the series on BVDV; over 52 µM in the series with HIV-1IIIB; over 100 µM in the series on Sb-1, VSV, VV, HSV-1; over 100 µM in the series on Reo-1; over 100 µM with CV-B5. Besides, the EC50 with RSV was 6 µM. Also, the results for the CC50 (in series [1]; in the series “in vitro”; in series [3]) were 52 µM, at least 100 µM and over 100 µM, respectively. The CC50 at 5 days in series [2] was over 100 µM.

On to `O=C1Nc2ccc(Cl)cc2[C@@](C#CC2CC2)(C(F)(F)F)O1` [EFV, Efavirenz, reference compound], for which, in series [1] (MT-4 cells (mock-infected)), the CC50 was 40 µM. Also, the EC50 with HIV-1IIIB was 0.002 ± 0.0002 µM.

As for `Cc1ccc(NC(=O)Nc2ccc(-n3nc4cc(Cl)c(Cl)cc4n3)cc2)cc1` [10f, 1-[4-(5,6-dichloro-2H-benzo[d][1,2,3]triazol-2-yl)phenyl]-3-(4-methylphenyl)urea], the EC50 with YFV is over 100 µM; in the series on BVDV, over 100 µM; with HIV-1IIIB, over 100 µM; in the series with Sb-1, VSV, VV, HSV-1, over 100 µM; with Reo-1, over 100 µM; in the series on CV-B5, over 100 µM. Also, the EC50 with RSV is over 100 µM. The CC50 (in series [1]; in the series “in vitro”; in series [3]) was over 100 µM each time. The CC50 at 5 days in series [2] is over 100 µM.

On to `Cc1cc(CCCOc2c(C)cc(-c3noc(C(F)(F)F)n3)cc2C)on1` [PCL, Pleconaril, reference compound], for which the CC50 in series [2] (Vero-76 cells (mock-infected)) was over 100 µM. Further, in the series with CV-B5, the EC50 is 0.005 ± 0.001 µM.

In the case of `C[C@@]1(O)[C@H](O)[C@@H](CO)O[C@H]1n1cnc2c(=O)[nH]c(N)nc21` [2MG, 2’-C-methyl-guanosine, reference compound], the EC50 in the series with YFV amounted to 1.9 ± 0.1 µM; with BVDV it was 1.1 ± 0.1 µM; in the series with Reo-1 it was 0.7 ± 0.2 µM. Also, the CC50 (in the series “in vitro”; in series [3]) was over 100 µM throughout.
